In ChEMBL document CHEMBL5370668, “Expected and Unexpected Products from the Biochemical Oxidation of Bacterial Alkylquinolones with CYP4F11” (2023) one finds zone of inhibition and Activity data, which are given here for 14 compounds.

Test [1] has as its system Staphylococcus epidermidis. Nature of the test: Antimicrobial activity against Staphylococcus epidermidis ATCC 14990 assessed as zone of inhibition at 60 ug incubated overnight by agar well diffusion assay. The class given is functional. Particulars: read-out: DIZ.
A further test relates to Staphylococcus aureus. Nature of the test: Antimicrobial activity against Staphylococcus aureus ATCC 12600 assessed as zone of inhibition at 60 ug incubated overnight by agar well diffusion assay. It is filed as functional. The settings on record: read-out: DIZ.
Another test deals with Candida albicans. Nature of the test: Antibiofilm activity against Candida albicans assessed as reduction in biofilm formation at 100 uM incubated for 48 hrs by XTT biofilm assay. It is filed as functional, organism-based. On the technique in general: Tetrazolium assays rely on reduction of a dye to a coloured formazan, in cell work by metabolically active cells.

Calls of active or inactive are those of the source. The rule behind the calls is not given here.

As to `CCCCCCCCc1cc(=O)c2ccccc2[nH]1`, the zone of inhibition at 60 µg/disc in test [1] was 12 mm; with Staphylococcus aureus, 11 mm. Moreover, the result in the test with Candida albicans was Active.

As to `O=c1cc(CCCCCCCO)[nH]c2ccccc12`, the zone of inhibition at 60 µg/disc (in test [1]; in the test on Staphylococcus aureus) was 0 mm throughout. For the same compound, the outcome with Candida albicans was inactive.

In the case of `O=c1cc(CCCCCCCCCO)[nH]c2ccccc12`, the zone of inhibition at 60 µg/disc (in test [1]; in the test with Staphylococcus aureus) was 0 mm throughout. Moreover, the outcome in the test with Candida albicans was inactive.

Regarding `CC1(C)S[C@@H]2[C@H](NC(=O)Cc3ccccc3)C(=O)N2[C@H]1C(=O)O` [PENICILLIN G], the zone of inhibition at 60 µg/disc in test [1] was found to be 38 mm; with Staphylococcus aureus it was 41 mm.

As to `CC(=O)OCCCCCCCCCc1cc(=O)c2ccccc2[nH]1`, the zone of inhibition at 60 µg/disc (in test [1]; in the test on Staphylococcus aureus) was 11 mm in each case.

With `CCCCCCCc1cc(=O)c2ccccc2[nH]1`, the zone of inhibition at 60 µg/disc (in test [1]; in the test with Staphylococcus aureus) was 13 mm throughout. For the same compound, the outcome in the test on Candida albicans was Active.

Turning to `O=c1cc(CCCCCCCCCCO)[nH]c2ccccc12`, the zone of inhibition at 60 µg/disc (in test [1]; in the test on Staphylococcus aureus) was 0 mm throughout. Further, the result in the test on Candida albicans was inactive.

As to `CC(=O)OCCCCCCCc1cc(=O)c2ccccc2[nH]1`, the zone of inhibition at 60 µg/disc in test [1] is 7 mm; in the test with Staphylococcus aureus it was 8 mm.

For the compound `CCCCCCCCCc1cc(=O)c2ccccc2[nH]1`, the zone of inhibition at 60 µg/disc (in test [1]; with Staphylococcus aureus) was 12 mm throughout. For the same compound, in the test with Candida albicans, the result was Active.

In the case of `CC(=O)OCCCCCCCCc1cc(=O)c2ccccc2[nH]1`, the zone of inhibition at 60 µg/disc (in test [1]; with Staphylococcus aureus) was 9 mm throughout.

`O=c1cc(CCCCCCCCO)[nH]c2ccccc12`: the zone of inhibition at 60 µg/disc (in test [1]; in the test with Staphylococcus aureus) was 0 mm each time.

With `CCCCCc1cc(O)c2ccccc2n1`, the figures for the zone of inhibition at 60 µg/disc (in test [1]; in the test on Staphylococcus aureus) were 14 mm and 13 mm, respectively. In addition, the outcome with Candida albicans was Active.

On to `CCCCCCCCCCc1cc(=O)c2ccccc2[nH]1`, for which the figures for the zone of inhibition at 60 µg/disc (in test [1]; in the test on Staphylococcus aureus) were 12 mm and 10 mm, respectively. In addition, the outcome in the test on Candida albicans was Active.

For the compound `CC(=O)OCCCCCCCCCCc1cc(=O)c2ccccc2[nH]1`, the zone of inhibition at 60 µg/disc (in test [1]; in the test with Staphylococcus aureus) was 10 mm in each case.
